Experiment [1] deals with HCV NS3/4A protease complex (Hepatitis C virus genotype 1a, UniProt P27958, C1454S/C1711G). Put plainly: Recombinant HCV NS3/4A protease complex FRET peptide assay (strain not stated). Format: biochemical. The settings on record: IC50, NS3/4A protease enzyme assay, strain not stated; activity ranges.
Experiment [2] concerns HCV replicon in Huh7 cells. The experiment in a line: HCV replicon cell-based assay. Details: species or system HCV strain 1B. The conditions noted are these: Hepatitis C virus, Huh-7, 96 h; HCV replicon, Huh7 cells, 4 days; activity ranges; read-out: EC50. Put shortly:
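Genotype 1b subgenomic replicon Huh7 cells exposed to compound 4 days at 37° C in 4% FCS, 0.5% DMSO medium. EC50 from TaqMan RT-PCR of HCV RNA, normalized to total RNA by RiboGreen; CC50 from alamar Blue fluorescence after 4 h.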

Each structure is given as a SMILES string.

Broadly, the IC50 is the concentration needed to halve the response being measured. The EC50 is the concentration needed to bring the measured effect to its halfway point.

Sequence of HCV NS3/4A protease complex (P27958 1027-1711, stated change not applied): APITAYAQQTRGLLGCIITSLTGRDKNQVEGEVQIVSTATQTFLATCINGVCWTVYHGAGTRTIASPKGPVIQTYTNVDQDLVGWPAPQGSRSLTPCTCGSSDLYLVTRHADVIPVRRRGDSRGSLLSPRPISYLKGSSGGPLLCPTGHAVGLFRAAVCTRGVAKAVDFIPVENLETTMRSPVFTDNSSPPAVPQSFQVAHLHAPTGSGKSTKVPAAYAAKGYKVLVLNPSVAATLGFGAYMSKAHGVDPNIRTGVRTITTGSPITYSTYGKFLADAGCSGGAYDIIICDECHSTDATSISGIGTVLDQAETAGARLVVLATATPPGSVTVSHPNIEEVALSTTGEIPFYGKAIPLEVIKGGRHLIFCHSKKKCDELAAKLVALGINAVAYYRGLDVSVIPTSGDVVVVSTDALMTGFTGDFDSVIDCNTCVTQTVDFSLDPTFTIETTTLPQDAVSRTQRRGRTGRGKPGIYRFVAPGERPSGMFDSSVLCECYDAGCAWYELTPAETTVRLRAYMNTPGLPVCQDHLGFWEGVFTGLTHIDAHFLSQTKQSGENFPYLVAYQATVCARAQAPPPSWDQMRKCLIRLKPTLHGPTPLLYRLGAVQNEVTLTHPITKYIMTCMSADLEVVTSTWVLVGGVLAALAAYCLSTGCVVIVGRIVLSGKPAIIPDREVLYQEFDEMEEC
Sequence of HCV NS3/4A protease complex (P27958 1027-1711, stated change not applied): as above

Take `COc1ccc2c(OC3C[C@@H](C(=O)NC4(C(=O)NS(=O)(=O)C5CC5)CC45CC5)N(C(=O)[C@@H](NC(=O)OC(C)(C)C)C(C)(C)C)C3)cc(-c3ccccc3)nc2c1` (stereo partly drawn) [Compound 140, {1-[2-(1-Cyclopropanesulfonylaminocarbonyl-spiro[2.2]pentane-1-ylcarbamoyl)-4-(7-methoxy-2-phenyl-quinolin-4-yloxy)-pyrrolidine-1-carbonyl]-2,2-dimethyl-propyl}-carbamic acid tert-butyl ester]: the IC50 in experiment [1] was under 50 nM. Also, the concentration giving a half-maximal response (EC50) in experiment [2] is under 500 nM.

Consider `C=CC1C[C@]1(NC(=O)[C@@H]1C[C@@H](Oc2cc(-c3ccccc3)nc3cc(OC)ccc23)CN1C(=O)[C@@H](NC(=O)OC(C)(C)C)C(C)C)C(=O)NS(=O)(=O)C1CCC1` (stereo partly drawn) [Compound 71], for which the IC50 in experiment [1] was under 50 nM. For the same compound, in experiment [2], the EC50 is under 50 nM.

`C=CC1C[C@]1(NC(=O)[C@@H]1C[C@@H](Oc2cc(-c3ccccc3)nc3cc(OC)ccc23)CN1C(=O)[C@@H](NC(=O)OC(C)(C)C)C(C)(C)C)C(=O)NS(=O)(=O)c1ccc(Br)cc1` (stereo partly drawn) [Compound 17]: the half-maximal inhibitory concentration (IC50) in experiment [1] is under 500 nM. Also, in experiment [2], the EC50 was under 500 nM.

Turning to `C=C[C@@H]1C[C@]1(NC(=O)C1C[C@@H](Oc2cc(-c3ccccc3)nc3cc(OC)ccc23)CN1C(=O)[C@@H](NC(=O)CC(C)(C)C)C(C)(C)C)C(=O)NS(=O)(=O)C1CC1` (stereo partly drawn) [Compound 103, 1-[2S-(3,3-Dimethyl-butyrylamino)-3,3-dimethyl-butyryl]-4R-(7-methoxy-2-phenyl-quinolin-4-yloxy)-pyrrolidine-2S-carboxylic acid (1R-cyclopropanesulfonylaminocarbonyl-2S-vinyl-cyclopropyl)amide], the IC50 in experiment [1] was under 50 nM. For the same compound, in experiment [2], the EC50 is under 50 nM.

In the case of `C=CC1C[C@]1(NC(=O)[C@@H]1C[C@@H](Oc2cc(-c3ccccc3)nc3cc(OC)ccc23)CN1C(=O)[C@@H](NC(=O)OC(C)(C)C)C(C)(C)C)C(=O)NS(=O)(=O)C(C)C` (stereo partly drawn) [Compound 27], the IC50 in experiment [1] is under 50 nM. Moreover, the EC50 in experiment [2] is under 500 nM.

On to `C=C[C@@H]1C[C@]1(NC(=O)C1CC(Oc2cc(-c3ccccc3)nc3cc(OC)ccc23)CN1C(=O)[C@@H](NC(=O)C(=O)OC)C(C)(C)C)C(=O)NS(=O)(=O)C1CC1` (stereo partly drawn) [Compound 121, N-{1S-[2S-(1R-cyclopropanesulfonylaminocarbonyl-2S-vinyl-cyclopropylcarbamoyl)-4R-(7-methoxy-2-phenyl-quinolin-4-yloxy)-pyrrolidine-1-carbonyl]-2,2-dimethyl-propyl}-oxalamic acid methyl ester], for which the IC50 in experiment [1] is under 50 nM. Besides, the EC50 in experiment [2] is under 500 nM.

Turning to `C=CCC[C@](C)(NC(=O)[C@@H]1C[C@@H](Oc2cc(-c3ccccc3)nc3cc(OC)ccc23)CN1C(=O)C(NC(=O)OC(C)(C)C)C(C)(C)C)C(=O)NS(=O)(=O)c1ccccc1Cl` (stereo partly drawn) [Compound 42], in experiment [1], the IC50 is under 50 nM. The EC50 in experiment [2] is under 500 nM.

Take `CCOC(=O)N[C@H](C(=O)N1C[C@H](Oc2cc(-c3ccccc3)nc3cc(OC)ccc23)C[C@H]1C(=O)N[C@]1(C(=O)NS(=O)(=O)C2CC2)CC1CC)C(C)C` (stereo partly drawn) [Compound 7]: in experiment [1], the IC50 was under 50 nM. Also, in experiment [2], the EC50 was under 500 nM.

Consider `C#CCOC(=O)N[C@H](C(=O)N1C[C@H](Oc2cc(-c3ccccc3)nc3cc(OC)ccc23)CC1C(=O)N[C@]1(C(=O)NS(=O)(=O)C2CC2)C[C@H]1C=C)C(C)(C)C` (stereo partly drawn) [Compound 124, {1S-[2S-(1R-cyclopropanesulfonylaminocarbonyl-2S-vinyl-cyclopropylcarbamoyl)-4R-(7-methoxy-2-phenyl-quinolin-4-yloxy)-pyrrolidine-1-carbonyl]-2,2-dimethyl-propyl}-carbamic acid prop-2-ynyl ester], for which the IC50 in experiment [1] is under 50 nM. For the same compound, the EC50 in experiment [2] was under 50 nM.

For `C=CC1C[C@]1(NC(=O)[C@@H]1C[C@@H](Oc2cc(-c3ccccc3)nc3cc(OC)ccc23)CN1C(=O)[C@@H](NC(=O)OC(C)(C)C)C(C)C)C(=O)NS(=O)(=O)C(C)C` (stereo partly drawn) [Compound 32], the concentration for half-maximal inhibition (IC50) in experiment [1] is under 50 nM. For the same compound, the EC50 in experiment [2] is under 50 nM.

In the case of `CCC1C[C@]1(NC(=O)[C@@H]1C[C@@H](Oc2cc(-c3ccccc3)nc3cc(OC)ccc23)CN1C(=O)[C@@H](NC(=O)OC1CCCC1)C(C)C)C(=O)NS(=O)(=O)C1CC1` (stereo partly drawn) [Compound 6], the IC50 in experiment [1] is under 50 nM. In addition, the EC50 in experiment [2] is under 50 nM.

Turning to `C=CC1C[C@]1(NC(=O)[C@@H]1C[C@@H](Oc2cc(-c3ccccc3)nc3cc(OC)ccc23)CN1C(=O)C(NC(=O)OC(C)(C)C)C(C)(C)C)C(=O)NS(=O)(=O)c1ccc(OC)cc1` (stereo partly drawn) [Compound 59], the IC50 in experiment [1] was under 50 nM. The EC50 in experiment [2] is under 50 nM.

With `C=CC1C[C@]1(NC(=O)[C@@H]1C[C@@H](Oc2cc(-c3ccccc3)nc3cc(OC)ccc23)CN1C(=O)[C@@H](NC(=O)OC(C)(C)C)C(C)CC)C(=O)NS(=O)(=O)C1CC1` (stereo partly drawn) [Compound 24], the IC50 in experiment [1] was under 500 nM. In addition, the EC50 in experiment [2] was under 500 nM.

For the compound `C=C[C@@H]1C[C@]1(NC(=O)C1CC(Oc2cc(-c3ccccc3)nc3cc(OC)ccc23)CN1C(=O)[C@@H](NS(C)(=O)=O)C(C)(C)C)C(=O)NS(=O)(=O)C1CC1` (stereo partly drawn) [Compound 117, 1-(2S-methanesulfonylamino-3,3-dimethyl-butyryl)-4R-(7-methoxy-2-phenyl-quinolin-4-yloxy)-pyrrolidine-2S-carboxylic acid (1R-cyclopropanesulfonylamino-carbonyl-2S-vinyl-cyclopropyl)-amide], in experiment [1], the IC50 is under 50 nM. The EC50 in experiment [2] is under 500 nM.

As to `C=C[C@@H]1C[C@]1(NC(=O)C1CC(Oc2cc(-c3ccccc3)nc3cc(OC)ccc23)CN1C(=O)[C@@H](NC(=O)OCC)C(C)(C)C)C(=O)NS(=O)(=O)C1CC1` (stereo partly drawn) [Compound 115, {1S-[2S-(1R-cyclopropanesulfonylaminocarbonyl-2S-vinyl-cyclopropylcarbamoyl)-4R-(7-methoxy-2-phenyl-quinolin-4-yloxy)-pyrrolidine-1-carbonyl]-2,2-dimethyl-propyl}-carbamic acid ethyl ester], the IC50 in experiment [1] was under 50 nM. Further, the EC50 in experiment [2] was under 50 nM.

For `C=C[C@@H]1C[C@]1(NC(=O)C1C[C@@H](Oc2cc(-c3ccccc3)nc3cc(OC)ccc23)CN1C(=O)[C@@H](NC(=O)COc1ccc(F)cc1)C(C)(C)C)C(=O)NS(=O)(=O)C1CC1` (stereo partly drawn) [Compound 109, 1-{2S-[2-(4-Fluoro-phenoxy)-acetylamino]-3,3-dimethyl-butyryl}-4R-(7-methoxy-2-phenyl-quinolin-4-yloxy)-pyrrolidine-2S-carboxylic acid (1R-cyclopropanesulfonylaminocarbonyl-2S-vinylcyclopropyl)-amide], the IC50 in experiment [1] is under 50 nM. The EC50 in experiment [2] was under 500 nM.

On to `C=CC1C[C@]1(NC(=O)[C@@H]1C[C@@H](Oc2cc(-c3ccccc3)nc3cc(OC)ccc23)CN1C(=O)[C@@H](N)C(C)(C)C)C(=O)NS(=O)(=O)C1CC1` (stereo partly drawn) [Compound 28], for which, in experiment [1], the IC50 is under 50 nM. In addition, the EC50 in experiment [2] is under 5000 nM.

In the case of `C=CCC[C@](C)(NC(=O)[C@@H]1C[C@@H](Oc2cc(-c3ccccc3)nc3cc(OC)ccc23)CN1C(=O)C(NC(=O)OC(C)(C)C)C(C)(C)C)C(=O)NS(=O)(=O)c1ccc(Cl)cc1` (stereo partly drawn) [Compound 44], the IC50 in experiment [1] is under 50 nM. In experiment [2], the EC50 was under 500 nM.

On to `C=C[C@@H]1C[C@]1(NC(=O)C1CC(Oc2cc(-c3ccccc3)nc3cc(OC)ccc23)CN1C(=O)[C@@H](NC(=O)CCl)C(C)(C)C)C(=O)NS(=O)(=O)C1CC1` (stereo partly drawn) [Compound 120, 1-[2S-(2-chloro-acetylamino)-3,3-dimethyl-butyryl]-4R-(7-methoxy-2-phenyl-quinolin-4-yloxy)-pyrrolidine-2S-carboxylic acid (1R-cyclopropanesulfonylaminocarbonyl-2S-vinylcyclopropyl)-amide], for which the IC50 in experiment [1] is under 50 nM. The concentration giving a half-maximal response (EC50) in experiment [2] is under 50 nM.

As for `C=CCC[C@](C)(NC(=O)[C@@H]1C[C@@H](Oc2cc(-c3ccccc3)nc3cc(OC)ccc23)CN1C(=O)C(NC(=O)OC(C)(C)C)C(C)(C)C)C(=O)NS(=O)(=O)c1ccc(F)c(Cl)c1` (stereo partly drawn) [Compound 45], the IC50 in experiment [1] was under 50 nM. Further, the EC50 in experiment [2] is under 500 nM.

Regarding `C=C[C@@H]1C[C@]1(NC(=O)C1C[C@@H](Oc2cc(-c3ccccc3)nc3cc(OC)ccc23)CN1C(=O)[C@@H](NC(=O)OCC(C)(C)C)C(C)(C)C)C(=O)NS(=O)(=O)C1CC1` (stereo partly drawn) [Compound 125, {1S-[2S-(1R-cyclopropanesulfonylaminocarbonyl-2S-vinyl-cyclopropylcarbamoyl)-4R-(7-methoxy-2-phenyl-quinolin-4-yloxy)-pyrrolidine-1-carbonyl]-2,2-dimethyl-propyl}-carbamic acid 2,2-dimethyl-propyl ester], the IC50 in experiment [1] is under 50 nM. In experiment [2], the EC50 was under 50 nM.

Take `C=CC1C[C@]1(NC(=O)[C@@H]1C[C@@H](Oc2cc(-c3ccccc3)nc3cc(OC)ccc23)CN1C(=O)[C@@H](NC(=O)OC(C)(C)C)C(C)(C)C)C(=O)NS(=O)(=O)c1ccccc1C#N` (stereo partly drawn) [Compound 50]: in experiment [1], the concentration for half-maximal inhibition (IC50) is under 500 nM. For the same compound, the EC50 in experiment [2] is under 5000 nM.

On to `C=CCC[C@](C)(NC(=O)[C@@H]1C[C@@H](Oc2cc(-c3ccccc3)nc3cc(OC)ccc23)CN1C(=O)C(NC(=O)OC(C)(C)C)C(C)(C)C)C(=O)NS(=O)(=O)c1cccc(Cl)c1` (stereo partly drawn) [Compound 43], for which, in experiment [1], the IC50 is under 50 nM. The EC50 in experiment [2] is under 500 nM.

`CCCNC(=O)N[C@H](C(=O)N1C[C@H](Oc2cc(-c3ccccc3)nc3cc(OC)ccc23)C[C@H]1C(=O)N[C@]1(C(=O)NS(=O)(=O)C2CC2)CC1CC)C(C)C` (stereo in doubt) [Compound 8, 4-(7-methoxy-2-phenylquinolin-4-yloxy)-1-[3-methyl-2-(3-propylureido)butyryl]pyrrolidine-2-carboxylic acid (1-cyclopropanesulfonylaminocarbonyl-2-ethylcyclopropyl)amide]: the concentration for half-maximal inhibition (IC50) in experiment [1] was under 50 nM. The 50% effective concentration (EC50) in experiment [2] is under 50 nM.

Values taken from patent US6872805B2 (Bristol-Myers Squibb Company, priority 2000, dated 2005).
